Test results from patent publication US10750743B2, “Pyridazinone herbicides” (E.I. DU PONT DE NEMOURS AND COMPANY, priority 2015, dated 2020).

What was measured:
Format in all cases: in vivo
[1] = tested on: barnyardgrass (Echinochloa crus-galli); assay: Test A preemergence, directed soil spray, visual injury rating; details: Echinochloa crus-galli, pre-emergence, 240 h, 0 is no effect, 100 is complete control, read-out: Plant response rating (0 to 100 scale), Barnyardgrass
Method in brief: (§1)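 Seeds sown in a loam soil–sand blend received a directed preemergence soil spray of test chemical in a non-phytotoxic solvent mixture with surfactant. Postemergence plants were sprayed at 2 to 10 cm, one- to two-leaf stage. After approximately 10 d in greenhouse, injury was visually rated 0 (no effect) to 100 (complete control) against untreated controls.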

[2] = tested on: foxtail, giant (giant foxtail, Setaria faberii); assay: as above; details: Setaria faberi, pre-emergence, 240 h, 0 is no effect, 100 is complete control, read-out: Plant response rating (0 to 100 scale), Foxtail, Giant
Method in brief: as §1

[3] = tested on: kochia (Kochia scoparia); assay: as above; details: Bassia scoparia, pre-emergence, 240 h, 0 is no effect, 100 is complete control, read-out: Plant response rating (0 to 100 scale), Kochia
Method in brief: as §1

[4] = tested on: pigweed (Amaranthus retroflexus); assay: as above; details: Amaranthus retroflexus, pre-emergence, 240 h, 0 is no effect, 100 is complete control, read-out: Plant response rating (0 to 100 scale), Pigweed
Method in brief: as §1

[5] = tested on: ragweed (common ragweed, Ambrosia elatior); assay: as above; details: Ambrosia artemisiifolia, pre-emergence, 240 h, 0 is no effect, 100 is complete control, read-out: Plant response rating (0 to 100 scale), Ragweed
Method in brief: as §1

[6] = tested on: ryegrass, It. (Italian ryegrass, Lolium multiflorum); assay: as above; details: Lolium multiflorum, pre-emergence, 240 h, 0 is no effect, 100 is complete control, read-out: Plant response rating (0 to 100 scale), Ryegrass, It.
Method in brief: as §1

[7] = tested on: barnyardgrass (Echinochloa crus-galli); assay: Test B flooded paddy test, visual rating; details: Echinochloa crus-galli, 360 h; Flood, 250 g ai/ha, applied to paddy water, rated after 13 to 15 d; read-out: Barnyardgrass plant response rating (0 to 100 scale, 0 is no effect, 100 is complete control)
Method in brief: (§2)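 Plants at the 2-leaf stage were flooded to 3 cm above soil, and test compounds were applied directly into the paddy water, which was held at that depth throughout. After 13 to 15 d in a greenhouse, injury was rated visually against untreated controls on a 0–100 scale (0 no effect, 100 complete control).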

[8] = tested on: ducksalad (Heteranthera limosa); assay: Test B flooded paddy test, visual rating; details: Heteranthera limosa, 360 h; Flood, 250 g ai/ha, applied to paddy water, rated after 13 to 15 d; read-out: Ducksalad plant response rating (0 to 100 scale, 0 is no effect, 100 is complete control)
Method in brief: as §2

[9] = tested on: rice (Oryza sativa); assay: Test B flooded paddy test, visual rating; details: Oryza sativa, 360 h; Flood, 250 g ai/ha, applied to paddy water, rated after 13 to 15 d; read-out: Rice plant response rating (0 to 100 scale, 0 is no effect, 100 is complete control)
Method in brief: as §2

[10] = tested on: barnyardgrass (Echinochloa crus-galli); assay: Test A postemergence application, visual injury rating; details: Echinochloa crus-galli, post-emergence, 240 h, 0 to 100 scale, 0 no effect, 100 complete control, read-out: Barnyardgrass plant response rating
Method in brief: as §1

[11] = tested on: blackgrass (Alopecurus myosuroides); assay: as above; details: Alopecurus myosuroides, post-emergence, 240 h, 0 to 100 scale, 0 no effect, 100 complete control, read-out: Blackgrass plant response rating
Method in brief: as §1

[12] = tested on: corn (Zea mays); assay: as above; details: Zea mays, post-emergence, 240 h, 0 to 100 scale, 0 no effect, 100 complete control, read-out: Corn plant response rating
Method in brief: as §1

[13] = tested on: foxtail, giant (giant foxtail, Setaria faberii); assay: as above; details: Setaria faberi, post-emergence, 240 h, 0 to 100 scale, 0 no effect, 100 complete control, read-out: Foxtail, Giant plant response rating
Method in brief: as §1

[14] = tested on: galium (catchweed bedstraw, Galium aparine); assay: as above; details: Galium, post-emergence, 240 h, 0 to 100 scale, 0 no effect, 100 complete control, read-out: Galium plant response rating
Method in brief: as §1

[15] = tested on: kochia (Kochia scoparia); assay: as above; details: Bassia scoparia, post-emergence, 240 h, 0 to 100 scale, 0 no effect, 100 complete control, read-out: Kochia plant response rating
Method in brief: as §1

[16] = tested on: pigweed (Amaranthus retroflexus); assay: as above; details: Amaranthus retroflexus, post-emergence, 240 h, 0 to 100 scale, 0 no effect, 100 complete control, read-out: Pigweed plant response rating
Method in brief: as §1

[17] = tested on: ragweed (common ragweed, Ambrosia elatior); assay: as above; details: Ambrosia artemisiifolia, post-emergence, 240 h, 0 to 100 scale, 0 no effect, 100 complete control, read-out: Ragweed plant response rating
Method in brief: as §1

[18] = tested on: ryegrass, It. (Italian ryegrass, Lolium multiflorum); assay: as above; details: Lolium multiflorum, post-emergence, 240 h, 0 to 100 scale, 0 no effect, 100 complete control, read-out: Ryegrass, It. plant response rating
Method in brief: as §1

[19] = tested on: wheat (Triticum aestivum); assay: as above; details: Triticum aestivum, post-emergence, 240 h, 0 to 100 scale, 0 no effect, 100 complete control, read-out: Wheat plant response rating
Method in brief: as §1

Q: `Cc1ccc2sccc2c1-c1c(O)c(C)nn(C)c1=O` [Compound 29, 5-hydroxy-2,6-dimethyl-4-(5-methylbenzo[b]thien-4-yl)-3(2H)-pyridazinone] was tested. Which pest or weed control at 125 g/ha ([1]; 125 g ai/ha) did it give?
A: 10%

Q: What about the pest or weed control at 500 g/ha ([1]; 500 g ai/ha) of the same compound?
A: 90%

Q: What about the pest or weed control at 125 g/ha ([2]; 125 g ai/ha) of the same compound?
A: 10%

Q: And the pest or weed control at 500 g/ha ([2]; 500 g ai/ha)?
A: 90%

Q: And the pest or weed control at 125 g/ha ([3]; 125 g ai/ha)?
A: 20%

Q: And the pest or weed control at 500 g/ha ([3]; 500 g ai/ha)?
A: 90%

Q: And the pest or weed control at 125 g/ha ([4]; 125 g ai/ha)?
A: 40%

Q: And the pest or weed control at 500 g/ha ([4]; 500 g ai/ha)?
A: 100%

Q: And the pest or weed control at 125 g/ha ([5]; 125 g ai/ha)?
A: 30%

Q: And the pest or weed control at 500 g/ha ([5]; 500 g ai/ha)?
A: 90%

Q: And the pest or weed control at 125 g/ha ([6]; 125 g ai/ha)?
A: 90%

Q: What about the pest or weed control at 500 g/ha ([6]; 500 g ai/ha) of the same compound?
A: 100%

Q: And the pest or weed control at 250 g/ha [7]?
A: 0%

Q: And the pest or weed control at 250 g/ha [8]?
A: 0%

Q: What about the plant injury at 250 g/ha [9] of the same compound?
A: 0%

Q: And the pest or weed control at 125 g/ha ([10]; 125 g ai/ha)?
A: 20%

Q: And the pest or weed control at 500 g/ha ([10]; 500 g ai/ha)?
A: 70%

Q: What about the pest or weed control at 125 g/ha ([11]; 125 g ai/ha) of the same compound?
A: 70%

Q: What about the pest or weed control at 500 g/ha ([11]; 500 g ai/ha) of the same compound?
A: 80%

Q: What about the plant injury at 125 g/ha ([12]; 125 g ai/ha) of the same compound?
A: 20%

Q: And the plant injury at 500 g/ha ([12]; 500 g ai/ha)?
A: 50%

Q: What about the pest or weed control at 125 g/ha ([13]; 125 g ai/ha) of the same compound?
A: 20%

Q: What about the pest or weed control at 500 g/ha ([13]; 500 g ai/ha) of the same compound?
A: 80%

Q: What about the pest or weed control at 125 g/ha ([14]; 125 g ai/ha) of the same compound?
A: 90%

Q: And the pest or weed control at 500 g/ha ([14]; 500 g ai/ha)?
A: 100%

Q: And the pest or weed control at 125 g/ha ([15]; 125 g ai/ha)?
A: 90%

Q: And the pest or weed control at 500 g/ha ([15]; 500 g ai/ha)?
A: 100%

Q: What about the pest or weed control at 125 g/ha ([16]; 125 g ai/ha) of the same compound?
A: 90%

Q: And the pest or weed control at 500 g/ha ([16]; 500 g ai/ha)?
A: 100%

Q: And the pest or weed control at 125 g/ha ([17]; 125 g ai/ha)?
A: 80%

Q: And the pest or weed control at 500 g/ha ([17]; 500 g ai/ha)?
A: 80%

Q: What about the pest or weed control at 125 g/ha ([18]; 125 g ai/ha) of the same compound?
A: 100%

Q: And the pest or weed control at 500 g/ha ([18]; 500 g ai/ha)?
A: 90%

Q: What about the plant injury at 125 g/ha ([19]; 125 g ai/ha) of the same compound?
A: 20%

Q: And the plant injury at 500 g/ha ([19]; 500 g ai/ha)?
A: 30%
